# Measurements from article PMC11015057 (ACS Infectious Diseases, 2024).
# Read-outs that look alike come from different tables or passages of the source.
# Columns and labels:
# [1] = tested on: uropathogens, including Escherichia coli; conditions: cited from earlier work
# [2] = tested on: E. coli TOP10-3 (GyrA^P35L, ParC^D79N); experiment: MIC, antibacterial susceptibility (CLSI); assay type: cell-based; conditions: Escherichia coli
# [3] = tested on: E. coli TOP10 (GyrA^WT, ParC^WT); experiment: microbe, parasite or virus in culture; assay type: cell-based; conditions: Escherichia coli
smiles,measurement,setting,value
O=c1ccc2ncc(=O)n3c2n1C[C@H]3CN1CCC(NCc2cc3c(cn2)OCCC3)CC1 [gepotidacin],clinical efficacy versus nitrofurantoin,[1]; EAGLE-3 phase III trial,demonstrated statistically significant superiority versus nitrofurantoin
same,clinical efficacy versus nitrofurantoin,"[1]; phase III trials, patients with confirmed uncomplicated urinary tract infection and uropathogen susceptible to nitrofurantoin",demonstrated noninferiority to nitrofurantoin
same,MIC,[2],16 µg/mL
same,MIC,[3],0.125 µg/mL
